From US8940730B2, “Methods and compositions of treating a Flaviviridae family viral infection” (The Board of Trustees of the Leland Stanford Junior …, priority 2007, dated 2015)
Like-named read-outs stand apart in the source and are kept apart here.

Tests used:
[1] = test system: HCV genotype 2a infectious clone; assay: HCV genotype 2a infectious clone assay (Renilla luciferase); assay type: cell-based; conditions: % replication activity of control with no test compound; for activity at 5 µM: Hepatitis C virus, read-out: 2a (% activity @ 5 μM), 5 μM
Protocol: The assays in parts A and B were used to generate the genotype 1b inhibitory activity and related cell toxicity (viability) data supported herein. This assay has been used to generate the genotype 2a inhibitory activity data supported herein.
(§1) 1) Wash cells once with PBS, trypsinize. […] Mix twice by pipeting. […] Make a common stock from all tubes. […] 15) Incubate for 24 hr before treatment.
(§2) 3) Repeat daily for 2 more days.

Huh7.5 cells = conditions: human, 3 days
Protocol: as §1, §2
1) Alamar blue assay—a) Include medium for background subtraction (and also for seeing change in color easily). b) Aspirate medium. c) Make a stock of medium plus 10% Alamar blue. Total volume per well is 100 μl. d) Incubate for 2-2.5 hrs at 37° C. (or until there is a color change). c) Read plates at flex station.

HCV 1b RNA replicon = assay: Luciferase assay for HCV genotype 1b replicon reporter cell lines
Huh7 cell line = assay: MTT assay for HCV replicon reporter cell lines (cell toxicity); assay type: cell-based; conditions: Homo sapiens
[2] = Hepatitis C virus, Huh-7, 48 h, read-out: 1b EC50, 1b replicon, Huh7, 48 hours, top concentration 25 μM
[3] = Huh-7, cell toxicity, MTT, top concentration 25 μM, read-out: Cell Viability EC50
[4] = Huh-7, read-out: Cell Viability EC50

Row | SMILES | activity at 5 µM [1] [%] | 2a cell viability (@ 5 μM) (Huh7.5 cells) [%] | EC50 (HCV 1b RNA replicon; [2]) [µM] | EC50 (Huh7 cell line; [3]) [µM] | also measured
1 | c1cncc(Cn2nc(OCCN3CCCC3)c3ccccc32)c1 [EBP356] | 68 | 95 | – | – | –
2 | C[C@H](COc1nn(Cc2ccc(Cl)cc2)c2ccccc12)CN1CCC[C@H]1CO [EBP454] | 69 | 93 | – | – | –
3 | O=C(O)C[C@@H]1CCCN1CCCOc1nn(Cc2ccc(Cl)cc2)c2ccccc12 [EBP508] | 77 | 100 | – | – | –
4 | C[C@H]1CCCN1CCCOc1nn(Cc2ccc(Cl)cc2)c2ccc(-c3cccnc3)cc12 [EBP897] | – | – | 7.2 | > 25 | –
5 | Clc1ccc(Cn2nc(OCCN3CCCC3)c3ccccc32)cc1 [EBP333] | 56 | 97 | – | – | –
6 | Cc1ccc2c(c1)c(OCCCN1CCCC1)nn2Cc1ccccc1 [EBP178] | 25 | 92 | – | – | –
7 | COc1ccc(-c2ccc3c(c2)c(OCCCN2CCC[C@@H]2C)nn3Cc2ccc(Cl)cc2)cn1 [EBP902] | – | – | 8.3 | > 25 | –
8 | OCC1CCN(CCCOc2nn(Cc3ccc(Cl)cc3)c3ccccc23)CC1 [EBP502] | – | – | 4.2 | > 25 | –
9 | C[C@H]1CCCN1CCCOc1nn(Cc2ccc(Cl)cc2)c2ccc(-c3ccc(N4CCOCC4)nc3)cc12 [EBP899] | – | – | 2.2 | > 25 | –
10 | COc1ccc(Cn2nc(OCCCN3CCCCC3)c3ccccc32)cc1 [EBP328] | 71 | 100 | – | – | –
11 | C[C@H]1CCCN1CCCOc1nn(Cc2ccc(Cl)cc2)c2ccc(Br)cc12 [EBP743] | – | – | 8.1 | – | –
12 | C[C@H]1CCCN1CCCOc1nn(Cc2ccc(Cl)cc2)c2ccc(-c3ccoc3)cc12 [EBP864] | – | – | 6.4 | > 25 | –
13 | Cc1ccc2c(c1)c(OCCN1CCCC1)nn2Cc1ccccc1 [EBP181] | 58 | 100 | – | – | –
14 | Cc1ccc2c(c1)c(OCCN1CCCCC1)nn2Cc1ccccc1 [EBP176] | 58 | 98 | – | – | –
15 | c1ccc2c(c1)c(OCCN1CCCC1)nn2CC1CCCCC1 [EBP339] | 69 | 100 | – | – | –
16 | CN(C)CCOc1nn(CCc2ccc(Cl)cc2)c2ccccc12 [EBP332] | 66 | 100 | – | – | –
17 | C[C@H]1CCCN1CCCOc1nn(Cc2ccc(Cl)cc2)c2ccc(N3CCCCCC3)cc12 [EBP918] | – | – | 8.2 | 11 | –
18 | C[C@H]1CCCN1CCCOc1nn(Cc2ccc(Cl)cc2)c2ccc(N(C)c3ccccc3)cc12 [EBP925] | – | – | 5.7 | > 25 | –
19 | Clc1cccc(Cn2nc(OCCN3CCCC3)c3ccccc32)c1 [EBP334] | 69 | 100 | – | – | –
20 | C[C@H]1CCCN1CCCOc1nn(Cc2ccc(Cl)cc2)c2ccc(-c3cccnc3)cc12 [EBP846] | – | – | – | – | EC50 (HCV 1b RNA replicon; read-out: 1b EC50, 1b replicon, Huh7, 48 hours, top concentration 25 μM): 8.2 µM
21 | Cc1ccc(Cn2nc(OCCN3CCCC3)c3ccccc32)cc1 [EBP335] | 73 | 10 | – | – | –
22 | COc1cncc(-c2ccc3c(c2)c(OCCCN2CCC[C@@H]2C)nn3Cc2ccc(Cl)cc2)c1 [EBP898] | – | – | 5.3 | > 25 | –

Row | SMILES | activity at 5 µM [1] [%] | 2a cell viability (@ 5 μM) (Huh7.5 cells) [%] | EC50 (HCV 1b RNA replicon; [2]) [µM] | EC50 (Huh7 cell line; [3]) [µM] | also measured
23 | COCC1CCN(CCCOc2nn(Cc3ccc(Cl)cc3)c3ccccc23)CC1 [EBP530] | – | – | 7.9 | > 25 | –
24 | Clc1ccc(Cn2nc(OCCCN3CCCCCC3)c3ccccc32)cc1 [EBP397] | 14 | 100 | 2.8 | > 25 | –
25 | Clc1ccc(Cn2nc(OCCCN3CCC[C@H]3CN3CCCC3)c3cc(Cl)ccc32)cc1 [EBP649] | – | – | 5.6 | > 25 | –
26 | Nc1ccc2c(c1)c(OCCCN1CCCC1)nn2Cc1ccc(Cl)cc1 [EBP531] | – | – | 3.9 | > 25 | –
27 | O[C@@H]1CN(CCCOc2nn(Cc3ccc(Cl)cc3)c3ccccc23)C[C@@H]1O [EBP514] | – | – | 5.1 | > 25 | –
28 | C[C@H]1CCCN1CCCOc1nn(Cc2ccc(Cl)cc2)c2ccc(N(C)Cc3ccccc3)cc12 [EBP924] | – | – | 5.7 | > 25 | –
29 | C[C@@H](COc1nn(Cc2ccc(Cl)cc2)c2ccccc12)CN1CCC[C@H]1CO [EBP449] | 83 | 99 | – | – | –
30 | CCOC(=O)[C@@H]1CCCN1CCCOc1nn(Cc2ccc(Cl)cc2)c2ccccc12 [EBP512] | 78 | 100 | – | – | –
31 | Clc1ccc(Cn2nc(OCC3CCCNC3)c3cc(Cl)ccc32)cc1 (stereo not shown) [EBP590] | – | – | 7.3 | 11 | –
32 | c1ccc(Cn2nc(OCCN3CCCCC3)c3ccccc32)cc1 [EBP175] | 89 | 98 | – | – | –
33 | Clc1ccc(Cn2nc(OCCN3CCC[C@H]3CN3CCCC3)c3ccccc32)cc1 [EBP403] | 50 | 97 | 3.8 | > 25 | –
34 | CC(=O)Nc1ccc(-c2ccc3c(c2)c(OCCCN2CCC[C@@H]2C)nn3Cc2ccc(Cl)cc2)cn1 [EBP900] | – | – | 5.6 | > 25 | –
35 | C[C@H]1CCCN1CCCOc1nn(Cc2ccc(Cl)cc2)c2ccc(N3CCCCC3)cc12 [EBP865] | – | – | 8.2 | – | –
36 | OCC1CCCCN1CCCOc1nn(Cc2ccc(Cl)cc2)c2ccc(Cl)cc12 (stereo not shown) [EBP503] | 36 | 86 | 7.2 | > 25 | –
37 | O[C@H]1CCN(CCOc2nn(Cc3ccc(Cl)cc3)c3ccccc23)C1 [EBP400] | 84 | 100 | – | – | –
38 | C[C@H]1CCCN1CCCOc1nn(Cc2ccc(Cl)cc2)c2ccc(Cl)cc12 [EBP646] | – | – | 6.6 | > 25 | –
39 | Cc1ccncc1-c1ccc2c(c1)c(OCCCN1CCC[C@@H]1C)nn2Cc1ccc(Cl)cc1 [EBP901] | – | – | 5.5 | > 25 | –
40 | COc1ccc(Cn2nc(OCCCN3CCCC3)c3ccccc32)cc1 [EBP327] | 89 | 98 | – | – | –
41 | CC(C)(C)OC(=O)N1CCC(Cn2nc(OCCN3CCCC3)c3ccccc32)CC1 [EBP340] | 62 | 98 | – | – | –
42 | COC(=O)C1CCCCN1CCCOc1nn(Cc2ccc(Cl)cc2)c2ccccc12 (stereo not shown) [EBP505] | 87 | 94 | – | – | –
43 | C[C@@H]1CCCN1CCCOc1nn(Cc2ccc(Cl)cc2)c2ccc(Cl)cc12 [EBP645] | – | – | 8 | > 25 | –
44 | O[C@@H]1CCN(CCCOc2nn(Cc3ccc(Cl)cc3)c3ccc(Cl)cc23)C1 [EBP644] | – | – | 7.5 | > 25 | –

Row | SMILES | activity at 5 µM [1] [%] | 2a cell viability (@ 5 μM) (Huh7.5 cells) [%] | EC50 (HCV 1b RNA replicon; [2]) [µM] | EC50 (Huh7 cell line; [3]) [µM] | also measured
45 | C[C@H]1CCCN1CCCOc1nn(Cc2ccc(Cl)cc2)c2ccc(-c3cnc(N)nc3)cc12 [EBP903] | – | – | 6.5 | > 25 | –
46 | C[C@H]1CCCN1CCCOc1nn(Cc2ccc(Cl)cc2)c2ccccc12 [EBP389] | – | – | – | – | 2a (% activity @ 5 μM) ([1]; 5 μM): 44%
47 | COC(=O)c1cccc(Cn2nc(OCCN3CCCC3)c3ccccc32)c1 [EBP338] | 79 | 100 | – | – | –
48 | Clc1ccc(Cn2nc(OCCCN3CC=CC3)c3ccccc32)cc1 [EBP519] | – | – | 18 | – | EC50 (Huh7 cell line; [4]): > 25 µM
49 | C[C@H]1CCCN1CCCOc1nn(Cc2ccc(Cl)cc2)c2ccc(NC3CCCCC3)cc12 [EBP917] | – | – | 8 | > 25 | –
50 | CS(=O)(=O)Nc1ccc2c(c1)c(OCCCN1CCCC1)nn2Cc1ccc(Cl)cc1 [EBP532] | – | – | 8.5 | > 25 | –
51 | c1ccc(Cn2nc(OCCCN3CCCCC3)c3ccccc32)cc1 [EBP192] | 50 | 88 | – | – | –
52 | c1ccc2c(c1)c(OCCN1CCCC1)nn2CC1CCCNC1 (stereo not shown) [EBP360] | 80 | 92 | – | – | –
53 | c1ccc(Cn2nc(OCCCN3CCCC3)c3ccccc32)cc1 [EBP177] | 53 | 100 | – | – | –
54 | Clc1ccc(Cn2nc(OCCCN3CC4CC3CO4)c3ccccc32)cc1 (stereo not shown) [EBP528] | – | – | 7.9 | – | EC50 (Huh7 cell line; [4]): 8.4 µM
55 | C[C@H]1CCCN1CCCOc1nn(Cc2ccc(Cl)cc2)c2ccc(-c3ccncc3)cc12 [EBP904] | – | – | 8.2 | > 25 | –
56 | COC[C@H]1CCCN1CCCOc1nn(Cc2ccc(Cl)cc2)c2ccc(N(C)c3ccccc3)cc12 [EBP522] | – | – | 6 | > 25 | –
57 | Cc1ccc2c(c1)c(OCCN(C)C)nn2Cc1ccccc1 [EBP182] | 82 | 100 | – | – | –
58 | c1ccc2c(c1)c(OCCN1CCCC1)nn2Cc1ccncc1 [EBP357] | 77 | 94 | – | – | –
59 | NC(=O)[C@@H]1CCCN1CCCOc1nn(Cc2ccc(Cl)cc2)c2ccccc12 [EBP385] | 75 | 100 | – | – | –
60 | Clc1ccc(Cn2nc(OCCCCN3CCCC3)c3ccccc32)cc1 [EBP548] | – | – | 3.2 | > 25 | –
61 | COc1ccc(COc2nn(Cc3ccc(OC)cc3)c3ccccc23)cc1 [EBP330] | 75 | 100 | – | – | –
62 | Cc1ccc2c(c1)c(OCCCN(C)C)nn2Cc1ccccc1 [EBP151] | 62 | 92 | – | – | –
63 | COC(=O)[C@@H]1CC[C@H](O)N1CCCOc1nn(Cc2ccc(Cl)cc2)c2ccccc12 [EBP507] | 87 | 90 | – | – | –
64 | OC[C@@H]1CCCN1CCCOc1nn(Cc2ccc(Cl)cc2)c2ccc(Cl)cc12 [EBP647] | – | – | 7.6 | > 25 | –
